Where two headings read alike, the source gives them in different places. Each block holds one compound with its values, some of them ahead of it.
What was measured:
Assay type in all cases: biochemical
CLK2 (h) = biological target: T1, CLK2 (h) (Homo sapiens, UniProt P49760); test: CLK2 KinaseProfiler radiometric protein kinase assay
T1 construct: purchased Merck Millipore (KinaseProfiler service)
Protocol: (§1) In vitro essays were performed by the company Merck Millipore in their KinaseProfiler radiometric protein kinase assay as paid commercial service. The compounds IC50 values for inhibition of individual protein kinases were determined. Dose-response curves were plotted from inhibition data generated, each in duplicate, from 10 point serial dilutions of inhibitory compounds. Concentration of compound was plotted against % kinase activity. To generate IC50 values, the dose-response curves were fitted to a standard sigmoidal curve and IC50 values were derived by standard nonlinear regression analysis.
(§2) All tested compounds were prepared in 100% DMSO to final assay concentrations either 0.5 mM (for the concentration row A, see below) or 0.05 mM (for the concentration row B). This working stock of the compound was added to the assay well as the first component in the reaction, followed by the remaining components as detailed below. The stock solution was added to the individual assay wells in such amounts that the concentrations of the compound were either in the row A (0.001 μM, 0.003 μM, 0.01 μM, 0.03 μM, 0.1 μM, 0.3 μM, 1.0 μM, 3.0 μM, and 10.0 μM) or in the row B (0.0001 μM, 0.0003 μM, 0.001 μM, 0.003 μM, 0.01 μM, 0.03 μM, 0.1 μM, 0.3 μM, and 1.0 μM). There was no pre-incubation step between the compound and the kinase prior to initiation of the reaction.
(§3) The positive control wells contained all components of the reaction, except the compound of interest; however, DMSO (at a final concentration of 2%) was included in these wells to control for solvent effects. The blank wells contained all components of the reaction, with staurosporine as a reference inhibitor replacing the compound of interest. This abolished kinase activity and established the base-line (0% kinase activity remaining).
CLK2 (h) was diluted in the buffer (20 mM MOPS (3-(N-morpholino)propanesulfonic acid), 1 mM EDTA (ethylendiaminotetraacetic acid), 0.01% Brij-35 (detergent), 5% Glycerol, 0.1% β-mercaptoethanol, 1 mg/mL BSAs) to the concentration of 1.01 mg/mL prior to addition to the reaction mix.
(§4) The above stock solution of CLK2(h) was added to a mixture containing 8 mM MOPS pH 7.0, 0.2 mM EDTA, and 20 μM […](p) EDEEE in such amount that the resulting concentration of CLK2(h) was 2.1 nM. This mixture was added to the stock solution of the tested compound. The reaction was initiated by the addition of the MgATP mix in such amount that the resulting concentration of Mg acetate in the reaction mixture was 10 mM and [γ-^33P-ATP] (specific activity approx. 500 cpm/pmol) was 15 μM. After incubation for 40 minutes at room temperature, the reaction was stopped by the addition of 3% phosphoric acid solution. 10 μL of the reaction was then spotted onto a P30 filtermat and washed three times for 5 minutes in 75 mM phosphoric acid and once in methanol prior to drying and scintillation counting.

CLK4 (h) = biological target: T2, CLK4 (h) (Homo sapiens, UniProt Q9HAZ1); test: CLK4 KinaseProfiler radiometric protein kinase assay; details: 15 μM ATP, 40 minutes at room temperature
T2 construct: purchased Merck Millipore (KinaseProfiler service)
Protocol: as §1, §2, §3
CLK4 (h) was diluted in the buffer (20 mM MOPS, 1 mM EDTA, 0.01% Brij-35, 5% Glycerol, 0.1% β-mercaptoethanol, 1 mg/mL BSAs) to the concentration of 1.01 mg/mL prior to addition to the reaction mix.
as §4, with “CLK4(h)” for “CLK2(h)”, “200” for “20”, “140.8” for “2.1”

HIPK1(h) = biological target: T3, HIPK1(h) (Homo sapiens, UniProt Q86Z02); test: HIPK1 KinaseProfiler radiometric protein kinase assay; details: 45 μM ATP, 40 minutes at room temperature
T3 construct: purchased Merck Millipore (KinaseProfiler service)
Protocol: as §1, §2, §3
HIPK1(h) was diluted in the buffer (20 mM MOPS, 1 mM EDTA, 0.01% Brij-35, 5% Glycerol, 0.1% β-mercaptoethanol, 1 mg/mL BSAs) to the concentration of 1.01 mg/mL prior to addition to the reaction mix.
(§5) The above stock solution of HIPK1(h) was added to a mixture containing 8 mM MOPS pH 7.0, 0.2 mM EDTA, and 0.33 mg/mL myelin basic protein in such amount that the resulting concentration of HIPK1(h) was 4.7 nM. This mixture was added to the stock solution of the tested compound. The reaction was initiated by the addition of the MgATP mix in such amount that the resulting concentration of Mg acetate in the reaction mixture was 10 mM and [γ-^33P-ATP] (specific activity approx. 500 cpm/pmol) was 45 μM. After incubation for 40 minutes at room temperature, the reaction was stopped by the addition of 3% phosphoric acid solution. 10 μL of the reaction was then spotted onto a P30 filtermat and washed three times for 5 minutes in 75 mM phosphoric acid and once in methanol prior to drying and scintillation counting.

DYRK2 = biological target: T4, DYRK2 (Homo sapiens, UniProt Q92630); test: DYRK2 KinaseProfiler radiometric protein kinase assay
T4 construct: purchased Merck Millipore (KinaseProfiler service)
T4 sequence (Q92630 1-601): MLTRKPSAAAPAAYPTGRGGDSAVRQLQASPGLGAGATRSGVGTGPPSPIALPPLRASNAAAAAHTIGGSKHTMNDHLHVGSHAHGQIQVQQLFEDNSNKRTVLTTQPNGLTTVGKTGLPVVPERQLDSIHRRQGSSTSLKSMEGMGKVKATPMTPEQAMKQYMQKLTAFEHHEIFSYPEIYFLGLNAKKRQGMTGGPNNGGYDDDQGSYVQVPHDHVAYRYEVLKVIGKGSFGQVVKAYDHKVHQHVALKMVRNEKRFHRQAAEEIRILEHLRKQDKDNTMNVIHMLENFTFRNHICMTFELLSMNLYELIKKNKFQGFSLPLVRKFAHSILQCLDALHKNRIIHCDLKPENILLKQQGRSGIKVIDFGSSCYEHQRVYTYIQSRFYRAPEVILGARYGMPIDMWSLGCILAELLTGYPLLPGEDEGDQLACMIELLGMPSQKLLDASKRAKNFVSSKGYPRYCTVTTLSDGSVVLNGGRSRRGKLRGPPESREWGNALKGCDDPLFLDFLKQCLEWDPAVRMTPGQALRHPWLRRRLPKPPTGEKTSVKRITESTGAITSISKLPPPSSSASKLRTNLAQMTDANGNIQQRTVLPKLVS
Protocol: as §1, §2, §3

HIPK2(h) = biological target: T5, HIPK2(h) (Homo sapiens, UniProt Q9H2X6); test: HIPK2 KinaseProfiler radiometric protein kinase assay; details: 10 μM ATP, 40 minutes at room temperature
T5 construct: purchased Merck Millipore (KinaseProfiler service)
Protocol: as §1, §2, §3
HIPK2(h) was diluted in the buffer (20 mM MOPS, 1 mM EDTA, 0.01% Brij-35, 5% Glycerol, 0.1% β-mercaptoethanol, 1 mg/mL BSAs) to the concentration of 1.01 mg/mL prior to addition to the reaction mix.
as §5, with “HIPK2(h)” for “HIPK1(h)”, “1.4” for “4.7”, “10” for “45”

[1] = radiometric, 15 μM ATP, 40 minutes at room temperature, read-out: CLK2 IC50

T2 sequence (Q9HAZ1 whole entry): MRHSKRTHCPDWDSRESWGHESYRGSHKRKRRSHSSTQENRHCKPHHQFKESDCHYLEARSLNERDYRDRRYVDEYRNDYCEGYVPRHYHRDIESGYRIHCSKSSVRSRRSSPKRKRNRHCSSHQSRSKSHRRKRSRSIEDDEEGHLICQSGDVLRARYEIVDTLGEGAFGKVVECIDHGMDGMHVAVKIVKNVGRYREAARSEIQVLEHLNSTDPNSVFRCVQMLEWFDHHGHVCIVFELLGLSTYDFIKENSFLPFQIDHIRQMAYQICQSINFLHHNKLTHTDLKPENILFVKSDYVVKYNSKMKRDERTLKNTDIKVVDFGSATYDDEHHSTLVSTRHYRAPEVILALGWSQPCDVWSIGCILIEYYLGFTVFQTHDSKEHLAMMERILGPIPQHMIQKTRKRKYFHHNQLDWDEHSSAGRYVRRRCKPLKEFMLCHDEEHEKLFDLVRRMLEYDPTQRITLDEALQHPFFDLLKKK
T1 sequence (P49760 whole entry): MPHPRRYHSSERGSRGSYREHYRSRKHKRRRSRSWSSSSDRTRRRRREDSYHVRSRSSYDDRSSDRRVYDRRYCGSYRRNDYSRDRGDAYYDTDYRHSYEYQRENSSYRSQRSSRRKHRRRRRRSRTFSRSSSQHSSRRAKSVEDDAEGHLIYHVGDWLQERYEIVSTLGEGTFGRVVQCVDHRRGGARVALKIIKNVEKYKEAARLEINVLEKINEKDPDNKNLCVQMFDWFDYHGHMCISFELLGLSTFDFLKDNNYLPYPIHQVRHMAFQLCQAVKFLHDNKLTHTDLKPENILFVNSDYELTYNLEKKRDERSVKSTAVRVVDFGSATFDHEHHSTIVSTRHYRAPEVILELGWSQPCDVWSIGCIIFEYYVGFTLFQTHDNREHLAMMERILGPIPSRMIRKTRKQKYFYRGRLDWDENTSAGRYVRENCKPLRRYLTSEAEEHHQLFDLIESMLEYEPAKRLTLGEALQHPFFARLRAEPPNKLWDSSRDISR
T5 sequence (Q9H2X6 whole entry): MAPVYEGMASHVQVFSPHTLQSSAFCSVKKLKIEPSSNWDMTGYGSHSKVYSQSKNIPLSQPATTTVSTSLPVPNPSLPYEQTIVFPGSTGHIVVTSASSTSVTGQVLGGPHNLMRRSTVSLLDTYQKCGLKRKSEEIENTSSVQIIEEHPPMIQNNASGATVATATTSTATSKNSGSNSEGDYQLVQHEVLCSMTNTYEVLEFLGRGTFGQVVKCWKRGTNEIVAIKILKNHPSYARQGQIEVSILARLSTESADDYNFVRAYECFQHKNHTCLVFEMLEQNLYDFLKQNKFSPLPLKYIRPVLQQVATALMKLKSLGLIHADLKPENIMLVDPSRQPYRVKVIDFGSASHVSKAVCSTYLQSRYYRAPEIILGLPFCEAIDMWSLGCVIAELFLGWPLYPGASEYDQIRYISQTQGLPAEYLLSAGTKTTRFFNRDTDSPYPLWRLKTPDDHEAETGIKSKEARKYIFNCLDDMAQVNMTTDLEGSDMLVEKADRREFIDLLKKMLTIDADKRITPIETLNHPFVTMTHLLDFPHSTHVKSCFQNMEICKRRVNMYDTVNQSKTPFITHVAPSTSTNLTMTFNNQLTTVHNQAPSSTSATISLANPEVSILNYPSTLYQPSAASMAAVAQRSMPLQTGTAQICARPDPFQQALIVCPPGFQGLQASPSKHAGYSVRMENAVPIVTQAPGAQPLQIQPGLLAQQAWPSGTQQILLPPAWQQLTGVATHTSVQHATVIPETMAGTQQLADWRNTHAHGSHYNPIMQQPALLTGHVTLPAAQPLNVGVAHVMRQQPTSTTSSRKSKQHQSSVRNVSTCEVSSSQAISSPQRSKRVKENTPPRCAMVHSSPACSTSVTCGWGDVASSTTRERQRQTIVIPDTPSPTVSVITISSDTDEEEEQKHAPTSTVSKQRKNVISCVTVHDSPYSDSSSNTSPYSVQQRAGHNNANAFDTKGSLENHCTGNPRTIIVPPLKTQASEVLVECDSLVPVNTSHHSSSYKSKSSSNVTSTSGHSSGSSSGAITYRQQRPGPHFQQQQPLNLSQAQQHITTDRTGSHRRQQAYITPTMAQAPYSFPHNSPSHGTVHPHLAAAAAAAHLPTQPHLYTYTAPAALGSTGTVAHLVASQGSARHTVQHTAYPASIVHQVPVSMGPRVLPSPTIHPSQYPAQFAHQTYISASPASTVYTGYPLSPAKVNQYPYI
T3 sequence (Q86Z02 whole entry): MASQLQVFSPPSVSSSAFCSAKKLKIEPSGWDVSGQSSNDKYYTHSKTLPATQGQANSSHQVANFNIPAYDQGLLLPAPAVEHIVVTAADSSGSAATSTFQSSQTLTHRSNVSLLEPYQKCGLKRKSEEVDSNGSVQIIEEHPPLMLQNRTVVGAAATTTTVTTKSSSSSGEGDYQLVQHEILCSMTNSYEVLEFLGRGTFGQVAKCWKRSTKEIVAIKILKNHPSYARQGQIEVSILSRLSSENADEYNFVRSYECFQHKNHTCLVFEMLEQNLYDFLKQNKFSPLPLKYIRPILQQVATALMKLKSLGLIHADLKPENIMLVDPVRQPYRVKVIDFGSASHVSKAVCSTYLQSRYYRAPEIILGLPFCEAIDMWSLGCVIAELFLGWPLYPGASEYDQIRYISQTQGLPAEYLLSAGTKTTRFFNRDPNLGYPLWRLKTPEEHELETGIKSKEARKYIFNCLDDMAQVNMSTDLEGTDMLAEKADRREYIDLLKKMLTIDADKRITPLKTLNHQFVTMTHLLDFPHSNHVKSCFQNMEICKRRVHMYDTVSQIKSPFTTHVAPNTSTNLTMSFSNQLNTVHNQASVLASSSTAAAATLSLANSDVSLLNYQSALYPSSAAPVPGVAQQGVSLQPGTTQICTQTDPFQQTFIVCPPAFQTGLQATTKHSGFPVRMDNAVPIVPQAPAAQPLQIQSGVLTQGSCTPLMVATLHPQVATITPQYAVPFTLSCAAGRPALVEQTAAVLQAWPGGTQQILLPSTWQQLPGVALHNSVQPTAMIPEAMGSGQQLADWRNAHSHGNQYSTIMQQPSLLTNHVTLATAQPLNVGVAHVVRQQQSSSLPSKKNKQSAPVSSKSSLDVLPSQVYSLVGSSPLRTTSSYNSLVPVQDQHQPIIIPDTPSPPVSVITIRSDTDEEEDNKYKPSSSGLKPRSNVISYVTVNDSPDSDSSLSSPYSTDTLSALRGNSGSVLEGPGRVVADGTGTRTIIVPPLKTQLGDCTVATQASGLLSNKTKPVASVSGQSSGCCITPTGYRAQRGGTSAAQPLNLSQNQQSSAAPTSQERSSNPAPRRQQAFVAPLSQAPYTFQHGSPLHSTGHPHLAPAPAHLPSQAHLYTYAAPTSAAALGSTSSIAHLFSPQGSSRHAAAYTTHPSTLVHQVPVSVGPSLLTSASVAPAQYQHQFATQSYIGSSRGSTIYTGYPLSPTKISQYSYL

Compound: Cn1cc(-c2ccc3occc3n2)cn1 [Preparative Example 12B]
IC50 (CLK2 (h); [1]): < 5000 nM
IC50 (CLK4 (h)): < 1000 nM

Compound: c1ccc(-c2coc3ccc(-c4cccnc4)nc23)cc1 [Preparative Example 6D]
IC50 (CLK2 (h); [1]): < 5000 nM
IC50 (CLK4 (h)): < 1000 nM
IC50 (HIPK1(h)): < 5000 nM
IC50 (HIPK2(h)): < 5000 nM

Compound: CC(C)(C)c1coc2ccc(-c3cn[nH]c3)nc12 [Preparative Example 55]
IC50 (CLK2 (h); [1]): < 1000 nM
IC50 (CLK4 (h)): < 1000 nM

Compound: CC(C)n1cc(-c2ccc3occ(-c4ccc5ccccc5c4)c3n2)cn1 [Preparative Example 7C]
IC50 (CLK2 (h); [1]): < 5000 nM
IC50 (CLK4 (h)): < 5000 nM
IC50 (HIPK2(h)): < 5000 nM

Compound: CCc1coc2ccc(-c3cnn(C)c3)nc12 [Preparative Example 23]
IC50 (CLK2 (h); [1]): < 1000 nM
IC50 (CLK4 (h)): < 1000 nM
IC50 (DYRK2): < 5000 nM

Compound: c1ccc2cc(-c3coc4ccc(-c5cncs5)nc34)ccc2c1 [Preparative Example 7F]
IC50 (CLK2 (h); [1]): < 1000 nM
IC50 (CLK4 (h)): < 1000 nM
IC50 (HIPK1(h)): < 1000 nM
IC50 (HIPK2(h)): < 100 nM

Compound: CC(C)(C)c1ccc(-c2coc3ccc(-c4cn[nH]c4)nc23)cc1 [Preparative Example 54]
IC50 (CLK2 (h)): < 5000 nM
IC50 (CLK4 (h)): < 5000 nM
IC50 (HIPK1(h)): < 1000 nM
IC50 (HIPK2(h)): < 1000 nM

Compound: Cn1cc(-c2ccc3occ(-c4cccc(-c5ccccc5)c4)c3n2)cn1 [Preparative Example 61]
IC50 (CLK2 (h); [1]): < 100 nM
IC50 (CLK4 (h)): < 100 nM
IC50 (HIPK1(h)): < 1000 nM
IC50 (HIPK2(h)): < 100 nM
IC50 (DYRK2): < 5000 nM

The next lines start with the values.

IC50 (CLK2 (h); [1]): < 1000 nM
Compound: Cc1cc2occ(-c3ccc4ccccc4c3)c2nc1-c1cnn(C)c1 [Preparative Example 80]

IC50 (CLK2 (h); [1]): < 1000 nM
IC50 (HIPK1(h)): < 5000 nM
IC50 (DYRK2): < 5000 nM
Compound: Cn1cc(-c2ccc3occ(-c4ccc(S(C)(=O)=O)cc4)c3n2)cn1 [Preparative Example 71]

IC50 (CLK2 (h); [1]): < 1000 nM
IC50 (HIPK1(h)): < 1000 nM
IC50 (DYRK2): < 5000 nM
Compound: Cn1cc(-c2ccc3occ(-c4ccc(CO)cc4)c3n2)cn1 [Preparative Example 70]

IC50 (CLK2 (h); [1]): < 1000 nM
IC50 (HIPK1(h)): < 5000 nM
Compound: Cn1cc(-c2ccc3occ(-c4cccc(C(C)(C)C)c4)c3n2)cn1 [Preparative Example 74]

IC50 (CLK2 (h); [1]): < 5000 nM
IC50 (CLK4 (h)): < 5000 nM
IC50 (HIPK1(h)): < 1000 nM
IC50 (HIPK2(h)): < 1000 nM
Compound: c1ccc2cc(-c3coc4ccc(-c5cnoc5)nc34)ccc2c1 [Preparative Example 62]

IC50 (CLK2 (h); [1]): < 5000 nM
IC50 (DYRK2): < 5000 nM
Compound: Cn1cc(-c2ccc3occ(-c4ccc([S+](C)[O-])cc4)c3n2)cn1 (stereo not drawn) [Preparative Example 73]

IC50 (CLK2 (h); [1]): < 1000 nM
IC50 (HIPK1(h)): < 1000 nM
IC50 (DYRK2): < 5000 nM
Compound: Cn1cc(-c2ccc3occ(-c4ccc(C(N)=O)cc4)c3n2)cn1 [Preparative Example 66]

IC50 (CLK2 (h); [1]): < 5000 nM
IC50 (HIPK1(h)): < 5000 nM
IC50 (DYRK2): < 5000 nM
Compound: Cn1cc(-c2ccc3occ(-c4ccc(-c5nnn[nH]5)cc4)c3n2)cn1 [Preparative Example 81]

IC50 (CLK2 (h); [1]): < 100 nM
IC50 (HIPK1(h)): < 1000 nM
IC50 (DYRK2): < 1000 nM
Compound: Cn1cc(-c2ccc3occ(-c4ccc5cn[nH]c5c4)c3n2)cn1 [Preparative Example 65]

Source: US9902733B2, “Furopyridines as inhibitors of protein kinases” (MASARYKOVA UNIVERZITA, priority 2014, dated 2018)
